# Read-outs that look alike come from different tables or passages of the source.
# Key:
# [1] = test system: acute myeloid leukemia (KG1) cells; experiment: Acute myeloid leukemia (KG1) mouse model, survival; assay type: in vivo, mice
# Procedure: (§1) Human acute erythro-leukemia (K562) and acute myeloid leukemia (KG1) cells (1×10^6) were injected intraperitoneally in immune-compromised mice. Engraftment was confirmed by complete blood counts, presence of anemia, and clinical assessment of animal behavior.
# (§2) The mice (total n=120 for each model respectively) were randomized into four (n=30/group) treatment groups. Each treatment regimen was administered in a four week cycle with three weeks of treatment, one week off: • 1. Untreated (control) • 2. Coenzyme Q10 (4%, administered at 75 mg/kg, once/day by continuous infusion) • 3. Chemotherapy (cytarabine/AraC 25 mg/kg, 5×/week; and adriamycin/daunorubicin 5 mg/kg; 1×/wk) • 4. Coenzyme Q10 (4%, administered at 75 mg/kg, once/day by continuous infusion)+chemotherapy (cytarabine/AraC 25 mg/kg, 5×/week; and adriamycin/daunorubicin 5 mg/kg; 1×/wk)
# (§3) All dosings were intravenous and followed a protocol of 3 week treatment followed by 1 week rest. Leukemia was monitored by pallor and blood smears, and hone marrow smears were performed post-mortem for analysis using Wright's stain. Survival results from the study of mice with acute erythroleukemia are show in FIG. 5. Day 1 is the first day of treatment with coenzyme Q10 and/or chemotherapy.
# [2] = test system: acute erythro-leukemia (K562) cells; experiment: Acute erythroleukemia (K562) mouse model, survival; assay type: in vivo, mice
# Procedure: as §1, §2, §3
# [3] = test system: H522 human lung cancer cells; experiment: H522 human lung cancer rat model, survival; assay type: in vivo, rats
# Procedure: The effect of coenzyme Q10 dosing regimens was further investigated in rats implanted with H522 human lung cancer cells. Rats were randomized to receive either no treatment (control), continuous infusion with coenzyme Q10, chemotherapy, or a combination of coenzyme Q10 and chemotherapy. The dose of coenzyme Q10 was 50 mg/kg per day over 24 hours and the concentration was 4%. The chemotherapy was repeated on a three week cycle as follows: week 1: I.V. Cyclophosphamide, 35 mg/kg, 1×/wk and I.V. Doxorubicin 2.5 mg/kg, 3×/wk; Weeks 2-3: no treatment.
# [4] = in vivo
# Procedure: The first-in-human Phase 1 study with coenzyme Q10 nanosuspension (40 mg/ml) was conducted in 50 patients with advanced solid tumors. The objectives were to assess the safety, maximum tolerated dose, PK and PD of coenzyme Q10, specifically a 4% coenzyme Q10 nanosuspension formulation (as described in WO 2011/112900, the entire contents of which are expressly incorporated herein by reference), administered as a 4-hour IV infusion 3 times weekly in 28-day cycles. […] Plasma concentration profiles and PK parameters were determined from blood samples collected pre-dose and at intervals to 48 hours post-dose.
# [5] = First-in-human Phase 1 study (CTL0510), 4-hour IV infusion 3 times weekly: safety
# Procedure: (§4) The first-in-human Phase 1 study with coenzyme Q10 nanosuspension (40 mg/ml) was conducted in 50 patients with advanced solid tumors. The objectives were to assess the safety, maximum tolerated dose, PK and PD of coenzyme Q10, specifically a 4% coenzyme Q10 nanosuspension formulation (as described in WO 2011/112900, the entire contents of which are expressly incorporated herein by reference), administered as a 4-hour IV infusion 3 times weekly in 28-day cycles. Nine dose levels were explored ranting from 5.62 to 139 mg/kg. Plasma concentration profiles and PK parameters were determined from blood samples collected pre-dose and at intervals to 48 hours post-dose.
# advanced solid tumors = experiment: First-in-human Phase 1 study (CTL0510), 4-hour IV infusion 3 times weekly: tumor response; assay type: in vivo
# Procedure: as §4
# [6] = coenzyme Q10 75 mg/kg/day continuous infusion + chemotherapy (cytarabine + daunorubicin) vs other groups incl. chemotherapy alone, p<0.00001
substance,measurement,setting,value
coenzyme Q10,survival,[1]; [6],significant increase in survival
same,survival,"[1]; coenzyme Q10 alone (4%, 75 mg/kg once/day by continuous infusion) vs chemotherapy (cytarabine + daunorubicin)",improved survival compared to chemotherapy
same,survival,[2]; [6],significant increase in survival
same,survival,"[2]; coenzyme Q10 alone (4%, 75 mg/kg once/day by continuous infusion) vs chemotherapy alone",relatively similar survival compared to chemotherapy alone
same,animal survival,[3]; continuous infusion 50 mg/kg per day combined with chemotherapy (cyclophosphamide + doxorubicin),more effective than either treatment alone
same,animal survival,"[3]; continuous infusion alone, 50 mg/kg per day over 24 hours, 4%, vs cyclophosphamide + doxorubicin",more effective than chemotherapy alone
same,Tmax and Cmax,[4]; human,generally associated with the end of the infusion
same,AUC0-168 (estimated weekly),"[4]; human, 176 mg/kg","68,787 μg*hr/mL"
same,Cmax (estimated weekly),"[4]; human, 176 mg/kg","1,558 μg/mL"
same,AUC0-168 (estimated weekly),"[4]; human, 235 mg/kg","74,640 μg*hr/mL"
same,Cmax (estimated weekly),"[4]; human, 235 mg/kg","1,592 μg/mL"
same,AUC0-168 (estimated weekly),"[4]; human, 313 mg/kg","125,953 μg*hr/mL"
same,Cmax (estimated weekly),"[4]; human, 313 mg/kg","2,198 μg/mL"
same,t1/2,"[4]; human, iv",2.18 to 18.0 h
same,accumulation with increasing duration of dosing,[4],no apparent accumulation
same,dose-proportionality,[4]; 22.5 mg/kg,dose-proportionality appeared linear
same,serious adverse events (bleeding) resulting in the patient's death due to hemothorax,[5]; 104.3 mg/kg dose level,One
same,"AST increased, laboratory AE",[5]; in vivo,8%
same,CTCAE grade of the majority of adverse events,[5]; in vivo,grade 1 or 2
same,"PTT prolonged, laboratory AE",[5]; in vivo,80%
same,SAEs reported as possibly related to coenzyme Q10,[5]; in vivo,Two
same,"alkaline phosphatase increased, laboratory AE",[5]; in vivo,2%
same,"arthritis, AE related to coenzyme Q10",[5]; in vivo,4%
same,"chills, AE related to coenzyme Q10",[5]; in vivo,6%
same,dose limiting toxicities (DLTs),[5]; in vivo,no dose limiting toxicities (DLTs) were identified
same,"fatigue, AE related to coenzyme Q10",[5]; in vivo,24%
same,"fever, AE related to coenzyme Q10",[5]; in vivo,8%
same,"headache, AE related to coenzyme Q10",[5]; in vivo,10%
same,increased INR considered related to coenzyme Q10,[5]; in vivo,68%
same,"nausea, AE related to coenzyme Q10",[5]; in vivo,8%
same,patients who died due to disease progression or intercurrent illness during the study,[5]; in vivo,Twenty
same,patients who discontinued treatment due to AEs reported as unrelated to treatment,[5]; in vivo,Four
same,patients who experienced abnormal INR values,[5]; in vivo,38 patients
same,patients with clinically significant increased INR,[5]; in vivo,14 patients
same,"platelet count decreased, laboratory AE",[5]; in vivo,14%
same,vital signs or physical examination findings,[5]; in vivo,No clinically significant changes
same,progressive disease,advanced solid tumors; 15 patients,30%
same,best response stable disease,advanced solid tumors; 23 of 50 patients,46%
same,partial response,advanced solid tumors; patient with a sarcoma,One

# Reference: patent publication US12653776B2, “Methods of treatment of cancer by continuous infusion of coenzyme Q10” (priority 2013, dated 2026)
